Laboratory results reported in patent publication US4378366A, “2-[Trifluoroethylamine]oxazolines” (Science Union et Cie, priority 1978, dated 1983).

Assay: solubility in dilute aqueous hydrochloric acid
Type: physicochemical
Conditions: dilute or N/10 aqueous hydrochloric acid; hydrochloride formed

SMILES | solubility in hydrochloric acid solution
CC(NC1=NCCO1)C(F)(F)F (racemic) [I, dl 2-(α-trifluoromethylethylamino)oxazoline] | soluble in the dilute aqueous solutions of hydrochloric acid
FC(F)(F)C(NC1=NCCO1)C1CC1 (racemic) [II, dl 2-[(1-trifluoromethyl 1-cyclopropyl)methylamino]oxazoline] | easily soluble in an aqueous solution of the just calculated amount of N/10 hydrochloric acid
CC(C)CC(NC1=NCCO1)C(F)(F)F (racemic) [III, dl 2-(1-trifluoromethyl 3-methylbutylamino)oxazoline] | soluble in dilute hydrochloric acid
FC(F)(F)C(F)(F)C(NC1=NCCO1)C1CCCCC1 (racemic) [X, dl 2-[(1-pentafluoroethyl 1-cyclohexyl)methylamino]oxazoline] | soluble in N/10 hydrochloric acid solutions
FC(F)(F)C(NC1=NCCO1)C1CCCCC1 (single isomer, unassigned) [IV, 2-[(1-trifluoromethyl 1-cyclohexyl)methylamino]oxazoline (dextrorotatory isomer)] | soluble in dilute hydrochloric acid
FC(F)(F)C(NC1=NCCCN1)C1CCCCC1 (single isomer, unassigned) [XI, 2-[(1-trifluoromethyl 1-cyclohexyl)methylamino]tetrahydropyrimidine (laevorotatory isomer)] | soluble in N/10 hydrochloric acid solutions
